Measured values from PubChem BioAssay (NCI).
“And” between values parts separate entries of the source, which are not always exact repeats. Equal entries are not always repeated.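 All cell lines were grown in 96-well plates and treated with compound for 48 hours. GI50: concentration for 50% inhibition of growth. The concentration for full growth arrest is given as TGI.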

Key:
Test in all cases: inhibition of tumour cell growth, NCI panel, 48 h
[1] = tested on: SF-268 CNS
[2] = tested on: HCT-15 colon
[3] = tested on: SF-539 CNS
[4] = tested on: K-562 leukemia
[5] = tested on: OVCAR-8 ovarian
[6] = tested on: MOLT-4 leukemia
[7] = tested on: 786-0 renal
[8] = tested on: LOX IMVI melanoma
[9] = tested on: RPMI-8226 leukemia
[10] = tested on: RXF 393 renal

| SMILES | TGI [1] [µM] | TGI [2] | TGI [3] | TGI [4] [µM] | TGI [5] [µM] | TGI [6] [µM] | TGI [7] [µM] | TGI [8] [µM] | TGI [9] [µM] | GI50 [2] | GI50 [3] | GI50 [6] [µM] | GI50 [7] [µM] | TGI [10] [µM] | GI50 [1] [µM] | GI50 [4] [µM] | GI50 [5] [µM] | GI50 [8] [µM] | GI50 [9] [µM] | GI50 [10] [µM] |
| --- | --- | --- | --- | --- | --- | --- | --- | --- | --- | --- | --- | --- | --- | --- | --- | --- | --- | --- | --- | --- |
| COc1ccc(/C=C2\C(=O)N(C(=O)Cc3ccccc3)N=C2C)cc1OC | > 100 | > 100 µM | > 100 µM | > 100 | > 100 | > 100 | > 100 | > 100 | > 100 |  |  |  |  |  |  |  |  |  |  |  |
| c1cc(CNC2C3CCC(C3)C2c2c[nH]c3ccccc23)cc(CNC2C3CCC(C3)C2c2c[nH]c3ccccc23)c1 (configuration not stated) |  | 1.01 µM and 1.12 µM | 3.39 µM and 3.17 µM |  |  | 3.38 | 27.3 |  | > 100 | 0.325 µM and 0.301 µM | 1.89 µM and 1.74 µM | 1.07 | 14.2 |  |  |  |  |  |  |  |
| S=c1nc(-c2cccnc2)[nH][nH]1 | > 100 | > 100 µM |  |  |  |  | > 100 | > 100 | > 100 |  |  |  |  | > 100 |  |  |  |  |  |  |
| C1=CC=C2NCCOCCNC3=CC=CC=CC3=NCCOCCN=C2C=C1 | > 100 | > 100 µM |  | > 100 | > 100 | > 100 | > 100 | > 100 | > 100 |  |  |  |  |  |  |  |  |  |  |  |
| COc1ccc(CN2c3ccccc3CCc3ccccc32)cc1F | > 100 | > 100 µM | 0.958 µM | > 100 | > 100 | > 100 | > 100 | > 100 | > 100 | 0.428 µM | 0.287 µM | 0.554 | 0.572 |  | 0.66 | 0.402 | 0.88 | 0.725 | 0.644 |  |
| CCC(c1cccc(O)c1)C(CC)c1cccc(O)c1 (configuration not stated) | 20.3 | 14.8 µM | 4.72 µM |  | 35.2 |  | 18.3 | 16.9 | 7.73 | 3.52 µM | 1.23 µM |  | 5.68 | 10.6 | 5.18 |  | 12.8 | 4.07 | 2.05 | 2.75 |
| C[C@]12CC[C@@H]3c4ccc(O)cc4C(O)C[C@H]3[C@@H]1CCC2=O (some centres not stated) | > 100 | > 100 µM | > 100 µM | > 100 | > 100 | > 100 | > 100 | > 100 | > 100 | > 100 µM | > 100 µM | > 100 | > 100 |  | > 100 | > 100 | > 100 | > 100 | 60.6 |  |
| CC1(C)C2CCC3(C2)CS(=O)(=O)N2OC231 (configuration not stated) | 47.2 | 30.1 µM | 33.6 µM | 54.6 | 67.2 |  | 31.2 | 31.1 | > 100 |  |  |  |  |  |  |  |  |  |  |  |
| CCOC(=O)CC1NC(=O)CS1 (configuration not stated) | > 100 | 45.1 µM | > 100 µM | > 100 | > 100 | > 100 | > 100 |  | 60.1 |  |  |  |  |  |  |  |  |  |  |  |
| O=C1C2Cc3ccccc3CN2C(=O)N1CCN1CCCC1 (configuration not stated) | > 100 | > 100 µM | > 100 µM | > 100 | > 100 | > 100 | > 100 | > 100 | > 100 |  |  |  |  |  |  |  |  |  |  |  |
| CCOC(=O)C(=O)Nc1c(C(C)C)cccc1C(C)C | > 100 | > 100 µM | > 100 µM |  | > 100 | > 100 | > 100 |  |  |  |  |  |  | > 100 |  |  |  |  |  |  |
| Cc1c2cc[n+](C)cc2c(C)c2c1[nH]c1ccc(O)c(OCC(F)(F)F)c12 | 1.1 |  | 9.72 µM | 17 | 25.5 | 22.1 | 9.35 | 46.5 | 16.8 |  |  |  |  |  |  |  |  |  |  |  |
| C[C-](O)O.O/C(=C\[C-](O)c1ccccc1)c1ccccc1.O/C(=C\[C-](O)c1ccccc1)c1ccccc1.[Nd+3] (configuration not stated) | 32.5 | 20.1 µM | 25.5 µM | 16.4 | 55 | 28.7 | 32.7 | 17.7 | 33.5 | 4.96 µM | 5.5 µM | 3.89 | 9.65 |  | 6.44 | 3.78 | 4.48 | 4.28 | 6.43 |  |
| CN=C1SC(=Nc2ccc(N(C)C)cc2)N1C | > 100 | > 100 µM | > 100 µM | > 100 | > 100 | > 100 | > 100 | > 100 | > 100 |  |  |  |  |  |  |  |  |  |  |  |
| COc1ccc(Cl)cc1Nc1nc(C(F)(F)F)ccc1C(=O)N/N=C/c1cc(OC)c(OC)c(OC)c1 | 5.75 | 11.9 µM | 3.2 µM | > 100 | 4.89 | 2.82 | 3.68 | 3.28 | > 100 | 1.23 µM | 1.51 µM | 0.642 | 1.78 |  | 1.32 | 2.42 | 1.59 | 1.25 | > 100 |  |
| CCN(CCNc1ccc(C)c2sc3ccccc3c(=O)c12)CC(C)(C)O | 32.2 | 7.78 µM | 25.2 µM | > 22.2 | > 71.6 | > 46 | 23 | 18.9 | 8.04 | 2.59 µM | 12.1 µM | 6.26 | 8.31 |  | 14.9 | 2.94 | 17.8 | 6.14 | 2.11 |  |
